Experimental data: patent US8288371B2, “Ortho pyrrolidine, benzyl-substituted heterocycle CCR1 antagonists for autoimmune diseases and inflammation” (Pharmacopeia, LLC, priority 2007, dated 2012)

target: T1, human CCR1 (Homo sapiens, UniProt P32246); assay: CCR1 binding protocol (SPA, [125I]-MIP-1α displacement); conditions: cell membrane expressing human CCR1, 0.1 nM [125I]-MIP-1α, 4 hours at ambient temperature; read-out: Relative potency (IC50)
T1 sequence (P32246 1-355): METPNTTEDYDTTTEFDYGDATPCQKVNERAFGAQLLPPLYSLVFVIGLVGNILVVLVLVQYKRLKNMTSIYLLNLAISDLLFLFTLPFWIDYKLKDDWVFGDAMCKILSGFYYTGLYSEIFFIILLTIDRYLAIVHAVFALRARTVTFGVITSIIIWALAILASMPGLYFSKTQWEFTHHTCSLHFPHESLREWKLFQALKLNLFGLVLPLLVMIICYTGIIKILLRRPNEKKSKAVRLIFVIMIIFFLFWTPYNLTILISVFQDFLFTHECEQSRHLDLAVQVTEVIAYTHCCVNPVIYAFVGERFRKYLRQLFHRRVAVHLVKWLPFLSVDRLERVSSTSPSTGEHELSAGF
In short: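 Displacement of 0.1 nM [125I]-MIP-1α (final) from membranes expressing human CCR1 was measured by scintillation proximity after 4 h at ambient temperature. Conditions: pH 7.4 Tris buffer with 0.1% BSA and MnCl, and 0.5 μg membrane per well. Compounds were tested as a 10-step ½-log series from a 10 mM DMSO stock to derive IC50.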

SMILES	IC50 [nM]
Cc1nnc([C@H]2C[C@@H](O)CN2C(=O)Nc2ccc(Cl)cc2F)n1Cc1ccc(Cl)cc1 [Compound 390]	500 to 5000
Cc1nnc([C@H]2C[C@@H](O)CN2C(=O)Nc2ccc(C(F)(F)F)cc2)n1Cc1ccc(Cl)cc1 [Compound 391]	500 to 5000
Cc1onc(-c2ccccc2)c1NC(=O)N1C[C@H](O)C[C@@H]1c1nnc(C)n1Cc1ccc(Cl)cc1 [Compound 392]	50 to 500
Cc1nnc([C@H]2C[C@@H](O)CN2C(=O)N[C@H]2CCOc3cc(C(F)(F)F)ccc32)n1Cc1ccc(Cl)cc1 [Compound 393]	< 50
Cc1ccc(NC(=O)N2CCC[C@@H]2c2nnc(C)n2Cc2ccc(Cl)cc2)c(Cl)n1 [Compound 394]	50 to 500
Cc1nnc([C@H]2CCCN2C(=O)Nc2ccc(Cl)nc2Cl)n1Cc1ccc(Cl)cc1 [Compound 395]	< 50
Cc1nnc([C@H]2CCCN2C(=O)Nc2ccc(C#N)nc2)n1Cc1ccc(Cl)cc1 [Compound 396]	50 to 500
Cc1nn(C)c(C)c1N/C(=N\C#N)N1CCC[C@@H]1c1nnc(C)n1Cc1ccc(Cl)cc1 [Compound 397]	50 to 500
Cc1nc(Cl)ccc1NC(=O)N1CCC[C@@H]1c1nnc(C)n1Cc1ccc(Cl)cc1 [Compound 398]	< 50
Cc1nnc([C@H]2CCCN2C(=O)NC2(c3ccccc3)CC2)n1Cc1ccc(F)cc1 [Compound 399]	50 to 500
Cc1noc(C)c1NC(=O)N1CCC[C@@H]1c1nnc(C)n1[C@@H](C)c1ccc(Cl)cc1 [Compound 400]	500 to 5000
C[C@@H](NC(=O)N1CCC[C@@H]1c1nnc(CO)n1Cc1ccc(Cl)cc1)c1ccc(Cl)cc1 [Compound 401]	50 to 500
C[C@H](NC(=O)N1CCC[C@@H]1c1nnc(CO)n1Cc1ccc(Cl)cc1)c1ccc(Cl)cc1 [Compound 402]	< 50
Cc1nnc([C@H]2CCCN2C(=O)N[C@@H]2c3ccccc3C[C@H]2O)n1Cc1ccc(Cl)cc1 [Compound 403]	50 to 500
Cc1nc(C(F)(F)F)ccc1NC(=O)N1CCC[C@@H]1c1nnc(C)n1Cc1ccc(Cl)cc1 [Compound 404]	< 50
Cc1nnc([C@H]2CCCN2C(=O)Nc2ccc(Cl)cc2C(F)(F)F)n1Cc1ccc(Cl)cc1 [Compound 405]	< 50
Cc1ccc(S(C)(=O)=O)c(C)c1NC(=O)N1CCC[C@@H]1c1nnc(C)n1Cc1ccc(Cl)cc1 [Compound 406]	< 50
CC[C@H](C)NC(=O)N1CCC[C@@H]1c1nnc(C)n1Cc1ccc(Cl)cc1 [Compound 407]	50 to 500

SMILES	IC50 [nM]
Cc1nnc([C@H]2CCCN2C(=O)Nc2ccc(Cl)c(F)c2)n1Cc1ccc(Cl)cc1 [Compound 408]	50 to 500
Cc1cc(Cl)ccc1NC(=O)N1CCC[C@@H]1c1nnc(C)n1Cc1ccc(Cl)cc1 [Compound 409]	< 50
Cc1nnc([C@H]2CCCN2C(=O)N[C@H]2CCOc3cc(C(F)(F)F)ccc32)n1Cc1ccc(Cl)c(Cl)c1 [Compound 410]	50 to 500
Cc1nnc([C@H]2CCCN2C(=O)N[C@H]2CCOc3cc(C(F)(F)F)ccc32)n1Cc1ccc(F)cc1 [Compound 411]	< 50
Cc1nnc([C@H]2CCCN2C(=O)NC2(c3ccccc3)CC2)n1Cc1ccc(Cl)c(Cl)c1 [Compound 412]	< 50
CNCc1nnc([C@H]2CCCN2C(=O)N[C@H]2CCOc3cc(C(F)(F)F)ccc32)n1Cc1ccc(Cl)cc1 [Compound 413]	50 to 500
NCc1nnc([C@H]2CCCN2C(=O)N[C@H]2CCOc3cc(C(F)(F)F)ccc32)n1Cc1ccc(Cl)cc1 [Compound 414]	50 to 500
Cc1ncc(NC(=O)N2CCC[C@@H]2c2nnc(C)n2Cc2ccc(Cl)cc2)c(C)n1 [Compound 415]	< 50
Cc1nnc([C@H]2CCCN2C(=O)Nc2cccc(Cl)c2F)n1Cc1ccc(Cl)cc1 [Compound 416]	< 50
Cc1nnc([C@H]2CCCN2C(=O)Nc2ccc(Cl)cc2C#N)n1Cc1ccc(Cl)cc1 [Compound 417]	< 50
Cc1nnc([C@H]2CCCN2C(=O)Nc2ccc(Br)cc2F)n1Cc1ccc(Cl)cc1 [Compound 418]	< 50
Cc1nnc([C@H]2CCCN2C(=O)Nc2cc(Cl)ccc2F)n1Cc1ccc(Cl)cc1 [Compound 419]	50 to 500
Cc1nnc([C@H]2CCCN2/C(=N/C#N)NCc2ccc(Cl)cc2Cl)n1Cc1ccc(Cl)cc1 [Compound 420]	50 to 500
Cc1nnc([C@H]2CCCN2C(=O)Nc2ccc(Cl)cc2Cl)n1Cc1ccc(Cl)cc1 [Compound 421]	50 to 500
Cc1nnc([C@H]2CCCN2C(=O)Nc2ccc(F)cc2F)n1Cc1ccc(Cl)cc1 [Compound 422]	50 to 500
Cc1nnc([C@H]2CCCN2C(=O)Nc2cc(C(F)(F)F)ccc2S(C)(=O)=O)n1Cc1ccc(Cl)cc1 [Compound 423]	50 to 500
Cc1nnc([C@H]2CCCN2C(=O)Nc2ccc(Cl)c(Cl)c2)n1Cc1ccc(Cl)cc1 [Compound 424]	50 to 500

Continued, values first:

IC50 [nM]	SMILES
< 50	Cc1nnc([C@H]2CCCN2C(=O)Nc2ccc(F)cc2Cl)n1Cc1ccc(Cl)cc1 [Compound 425]
< 50	Cc1cc(NC(=O)N2CCC[C@@H]2c2nnc(C)n2Cc2ccc(Cl)cc2)c(F)cc1Cl [Compound 426]
< 50	Cc1nnc([C@H]2CCCN2C(=O)Nc2cc(F)c(Cl)cc2F)n1Cc1ccc(Cl)cc1 [Compound 427]
< 50	COc1cc(Cl)ccc1NC(=O)N1CCC[C@@H]1c1nnc(C)n1Cc1ccc(Cl)cc1 [Compound 428]
< 50	Cc1nnc([C@H]2CCCN2C(=O)Nc2c(F)cc(Cl)cc2F)n1Cc1ccc(Cl)cc1 [Compound 429]
50 to 500	Cc1nnc([C@H]2CCCN2C(=O)Nc2ccc3c(c2)S(=O)(=O)C=C3)n1Cc1ccc(Cl)cc1 [Compound 430]
< 50	Cc1nc(C(F)(F)F)ncc1NC(=O)N1CCC[C@@H]1c1nnc(C)n1Cc1ccc(Cl)cc1 [Compound 431]
< 50	Cc1nnc([C@H]2C[C@H](O)CN2C(=O)N[C@H]2CCOc3cc(C(F)(F)F)ccc32)n1Cc1ccc(Cl)cc1 [Compound 432]
< 50	Cc1onc(-c2ccccc2)c1NC(=O)N1C[C@@H](O)C[C@@H]1c1nnc(C)n1Cc1ccc(Cl)cc1 [Compound 433]
< 50	Cc1nnc([C@H]2CCCN2C(=O)Nc2ccc(Cl)cc2S(C)(=O)=O)n1Cc1ccc(Cl)cc1 [Compound 434]
< 50	Cc1nnc([C@H]2C[C@H](O)CN2C(=O)Nc2ccc(Cl)cc2F)n1Cc1ccc(Cl)cc1 [Compound 435]
< 50	Cc1nnc([C@H]2C[C@H](O)CN2C(=O)NC2(c3ccc(C(F)(F)F)cc3)CC2)n1Cc1ccc(Cl)cc1 [Compound 436]
< 50	Cc1nnc([C@H]2C[C@H](O)CN2C(=O)Nc2ccc(Cl)c(C(F)(F)F)c2)n1Cc1ccc(Cl)cc1 [Compound 437]
< 50	Cc1nnc([C@H]2C[C@@H](O)CN2C(=O)N[C@@H](C)c2ccc(Cl)cc2)n1Cc1ccc(Cl)cc1 [Compound 438]
50 to 500	Cc1nnc([C@H]2C[C@@H](O)CN2C(=O)NCc2ccc(C(F)(F)F)cc2)n1Cc1ccc(Cl)cc1 [Compound 439]
< 50	Cc1nnc([C@H]2C[C@H](O)CN2C(=O)NC2CCOc3cc(C#N)ccc32)n1Cc1ccc(Cl)cc1 (stereo partly shown) [Compound 440]

IC50 [nM]	SMILES
50 to 500	Cc1nnc([C@H]2CCCN2C(=O)Nc2ccc(Cl)c(C(F)(F)F)c2)n1Cc1ccc(Cl)cc1 [Compound 441]
< 50	Cc1nnc([C@H]2C[C@@H](O)CN2C(=O)NCc2ccc(Cl)cc2Cl)n1Cc1ccc(Cl)cc1 [Compound 442]
50 to 500	Cc1nnc([C@H]2CCCN2C(=O)Nc2ccc(Cl)c(S(C)(=O)=O)c2)n1Cc1ccc(Cl)cc1 [Compound 443]
50 to 500	Cc1nnc([C@H]2C[C@@H](O)CN2C(=O)NC2CCOc3cc(C#N)ccc32)n1Cc1ccc(Cl)cc1 (stereo partly shown) [Compound 444]
50 to 500	Cc1noc(C)c1NC(=O)N1C[C@@H](O)C[C@@H]1c1nnc(C)n1Cc1ccc(Cl)cc1 [Compound 445]
50 to 500	Cc1nnc([C@H]2C[C@@H](O)CN2C(=O)Nc2ccc(Cl)c(C(F)(F)F)c2)n1Cc1ccc(Cl)cc1 [Compound 446]
50 to 500	Cc1noc(C)c1NC(=O)N1C[C@H](O)C[C@@H]1c1nnc(C)n1Cc1ccc(Cl)cc1 [Compound 447]
50 to 500	O=C(Nc1ccc(Cl)c(C(F)(F)F)c1)N1CCC[C@@H]1c1ncnn1Cc1ccc(Cl)cc1 [Compound 448]
500 to 5000	Cc1nnc([C@H]2C[C@@H](O)CN2C(=O)Nc2ccc(F)c(C(F)(F)F)c2)n1Cc1ccc(Cl)cc1 [Compound 449]
500 to 5000	CC(=O)N1CCC(NC(=O)N2CCC[C@@H]2c2nnc(C)n2Cc2ccc(Cl)cc2)CC1 [Compound 450]
< 50	Cc1nnc([C@H]2CCCN2C(=O)Nc2ccc(S(=O)(=O)N(C)C)cc2Cl)n1Cc1ccc(Cl)cc1 [Compound 451]
< 50	CNS(=O)(=O)c1ccc(NC(=O)N2CCC[C@@H]2c2nnc(C)n2Cc2ccc(Cl)cc2)c(Cl)c1 [Compound 452]
50 to 500	Cc1nnc([C@H]2CCCN2C(=O)Nc2cnc(C(F)(F)F)nc2)n1Cc1ccc(Cl)cc1 [Compound 453]
50 to 500	Cc1nnc([C@H]2CCCN2C(=O)Nc2ccc(C#N)cc2F)n1Cc1ccc(Cl)cc1 [Compound 454]
50 to 500	Cc1cc(C)c(S(=O)(=O)O)cc1NC(=O)N1CCC[C@@H]1c1nnc(C)n1Cc1ccc(Cl)cc1 [Compound 455]
50 to 500	Cc1nnc([C@H]2CCCN2C(=O)Nc2ccc(S(=O)(=O)O)cc2Cl)n1Cc1ccc(Cl)cc1 [Compound 456]
